By inhibition is commonly meant how much of the control response was suppressed. In general, half-life refers to the time in which the quantity being followed falls by half. The term Papp A→B denotes the apparent permeability from the apical to the basolateral side of a cell layer. Broadly, the efflux ratio is a quotient of directional permeabilities that is used to spot active efflux.

The text below walks through data of ChEMBL document CHEMBL5338818, “Discovery of the First Potent, Selective, and In Vivo Efficacious Polo-like Kinase 4 Proteolysis Targeting Chimera Degrader for the Treatment of TRIM37-Amplified Breast Cancer” (J Med Chem, 2023).

Each structure is given as a SMILES string. Calls of active or inactive are those of the source. No cut-off for these calls is given here.

Series [1] deals with T1, Protein cereblon/Serine/threonine-protein kinase PLK4 (Homo sapiens, UniProt O00444+Q96SW2). As to the kind of experiment: Protac activity at CRBN/PLK4 in human MCF7 cells at 0.1 uM incubated for 48 hrs by Western blot analysis. It counts as cell-based. On the technique in general: In western blotting, separated proteins are transferred to a membrane and probed.
T1 sequence (Q96SW2 whole entry, looked up, one chain of several): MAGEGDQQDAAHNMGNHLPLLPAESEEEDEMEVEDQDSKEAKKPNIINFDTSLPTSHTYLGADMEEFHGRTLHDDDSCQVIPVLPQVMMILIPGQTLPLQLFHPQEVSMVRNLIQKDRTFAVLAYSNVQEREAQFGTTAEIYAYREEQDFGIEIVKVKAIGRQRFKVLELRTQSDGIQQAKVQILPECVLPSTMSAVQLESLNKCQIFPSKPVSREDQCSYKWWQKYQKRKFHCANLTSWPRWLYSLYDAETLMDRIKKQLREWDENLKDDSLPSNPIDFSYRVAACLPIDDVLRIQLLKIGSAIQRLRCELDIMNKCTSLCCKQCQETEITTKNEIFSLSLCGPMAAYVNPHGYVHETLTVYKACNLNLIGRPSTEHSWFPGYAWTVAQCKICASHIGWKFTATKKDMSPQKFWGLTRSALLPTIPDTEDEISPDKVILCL
Series [2] has as its target T1, Protein cereblon/Serine/threonine-protein kinase PLK4. The series can be described thus: Protac activity at CRBN/PLK4 in human MCF7 cells at 1 uM by Western blot analysis. It counts as cell-based.
In series [3] the target is T2, Serine/threonine-protein kinase PLK4 (Homo sapiens) (UniProt O00444).
T2 sequence (whole entry): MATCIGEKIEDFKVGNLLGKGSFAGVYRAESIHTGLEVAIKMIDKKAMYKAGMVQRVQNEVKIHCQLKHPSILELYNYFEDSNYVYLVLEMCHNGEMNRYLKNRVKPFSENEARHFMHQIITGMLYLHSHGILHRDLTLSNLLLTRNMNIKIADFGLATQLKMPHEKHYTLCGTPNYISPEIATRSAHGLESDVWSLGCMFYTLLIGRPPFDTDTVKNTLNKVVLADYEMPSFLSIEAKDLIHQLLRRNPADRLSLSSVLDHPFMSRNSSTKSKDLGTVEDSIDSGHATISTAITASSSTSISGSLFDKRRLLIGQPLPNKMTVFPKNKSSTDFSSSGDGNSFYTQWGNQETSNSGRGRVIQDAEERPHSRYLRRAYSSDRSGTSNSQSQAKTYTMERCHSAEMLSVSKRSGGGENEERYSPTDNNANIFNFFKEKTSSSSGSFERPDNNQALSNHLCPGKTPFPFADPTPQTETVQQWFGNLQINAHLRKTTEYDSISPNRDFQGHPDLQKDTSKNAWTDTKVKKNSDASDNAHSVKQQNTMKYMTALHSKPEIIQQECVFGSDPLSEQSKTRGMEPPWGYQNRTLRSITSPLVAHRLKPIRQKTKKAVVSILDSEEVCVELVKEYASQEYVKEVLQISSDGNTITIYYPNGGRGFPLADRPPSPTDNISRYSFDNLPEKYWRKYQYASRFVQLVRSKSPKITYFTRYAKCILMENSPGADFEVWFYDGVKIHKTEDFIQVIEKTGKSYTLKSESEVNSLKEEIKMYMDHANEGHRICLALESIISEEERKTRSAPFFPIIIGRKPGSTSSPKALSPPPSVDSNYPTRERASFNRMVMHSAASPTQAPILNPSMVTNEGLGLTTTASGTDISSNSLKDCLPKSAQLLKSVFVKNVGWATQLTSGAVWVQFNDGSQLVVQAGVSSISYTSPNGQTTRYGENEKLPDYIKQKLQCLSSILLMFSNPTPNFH
As to the kind of experiment: Inhibition of PLK4 in human MCF7 cells assessed as increase in SAS-6 degradation by Western blot analysis. In kind it is cell-based. Particulars: dose 1-1000 nM.

The subject of series [4] is MCF7. As to the kind of experiment: Inhibition of colony formation in human MCF7 cells incubated for 14 days by crystal violet staining based assay. It counts as functional, cell-based. The following applies: dose 0.05-1 µM, time 14.0 day.
Series [5] has as its system MCF7. The series can be described thus: Induction of cell senescence in human MCF7 cells assessed by increase SA-beta-Gal positive cells at 2 uM measured after 48 hrs. In kind it is functional, cell-based.
Series [6] concerns MCF7. As to the kind of experiment: Inhibition of human MCF7 cells migration at 0.1 to 1 uM by inverted microscopic analysis. The following applies: dose 0.1-1 µM, time 48.0 hrs, TDE = time-dependent effect. In kind it is functional, cell-based.
A short description of series [7]: Metabolic stability in human liver microsomes assessed as half life at 100 uM incubated for 60 mins in presence of NADPH by LC-MS/MS analysis. It counts as ADME, Microsome. In general terms: Microsomes from liver hold many membrane-bound enzymes, among them those of drug oxidation.
The nature of series [8]: Metabolic stability in mouse liver microsomes assessed as half life at 100 uM incubated for 60 mins in presence of NADPH by LC-MS/MS analysis. It counts as ADME, Microsome.
Series [9] can be described thus: Metabolic stability in human liver microsomes assessed as intrinsic clearance at 100 uM incubated for 60 mins in presence of NADPH by LC-MS/MS analysis. In kind it is ADME, Microsome. Particulars: read-out: CLH.
Series [10] in a line: Metabolic stability in mouse liver microsomes assessed as compound remaining at 100 uM incubated for 60 mins in presence of NADPH by LC-MS/MS analysis. It counts as ADME, Microsome. The following applies: read-out: Stability.
The nature of series [11]: Metabolic stability in rat liver microsomes assessed as compound remaining at 100 uM incubated for 60 mins in presence of NADPH by LC-MS/MS analysis. Particulars: read-out: Stability. In kind it is ADME, Microsome.
A short description of series [12]: Metabolic stability in rat liver microsomes assessed as compound remaining at 100 uM incubated for 60 mins by LC-MS/MS analysis. Particulars: read-out: Stability. In kind it is ADME, Microsome.
The target of the next series is CYP2C19 (Homo sapiens, UniProt P33261). The series can be described thus: Inhibition of CYP2C19 in human liver microsomes at 10 uM using (+)-3-benzylnirvanol as substrate preincubated for 10 mins followed by NADPH regenerating system addition and measured after 15 mins by LC-MS/MS analysis relative to control. In kind it is ADME, Microsome. Particulars: probe (+)-3-benzylnirvanol (named as substrate in the text), time 25 min.
CYP2C19, sequence (P33261 whole entry): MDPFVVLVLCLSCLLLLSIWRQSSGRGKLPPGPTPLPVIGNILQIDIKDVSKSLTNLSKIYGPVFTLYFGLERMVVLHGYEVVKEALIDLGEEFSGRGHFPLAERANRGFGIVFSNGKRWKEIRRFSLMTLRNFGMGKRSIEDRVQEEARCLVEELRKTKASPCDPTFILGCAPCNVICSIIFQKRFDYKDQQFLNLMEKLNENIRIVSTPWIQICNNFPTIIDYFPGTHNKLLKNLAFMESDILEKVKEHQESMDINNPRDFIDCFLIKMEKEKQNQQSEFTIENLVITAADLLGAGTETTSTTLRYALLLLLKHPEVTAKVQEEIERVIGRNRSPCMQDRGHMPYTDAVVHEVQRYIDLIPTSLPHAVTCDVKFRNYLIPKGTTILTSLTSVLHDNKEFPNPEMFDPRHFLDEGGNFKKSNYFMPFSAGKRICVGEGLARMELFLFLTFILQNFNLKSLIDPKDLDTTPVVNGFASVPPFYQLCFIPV

The test system of a further series is CYP2D6. As to the kind of experiment: Inhibition of CYP2D6 in human liver microsomes at 10 uM using quinidine as substrate preincubated for 10 mins followed by NADPH regenerating system addition and measured after 15 mins by LC-MS/MS analysis relative to control. In kind it is ADME, Microsome. Particulars: time 25 min.
Series [13] can be described thus: Observed mean […] time infinity in ICR mouse at 2 mg/kg, iv measured upto 24 hrs by LC-M/MS analysis. It counts as ADME, organism-based. Particulars: in vivo.
Series [14] is described as follows: Observed mean […] time infinity in ICR mouse at 20 mg/kg, ip measured upto 24 hrs by LC-M/MS analysis. In kind it is ADME, organism-based. Particulars: in vivo.
Series [15] can be described thus: Apparent permeability across apical to basolateral side in human Caco-2 cells at 2 uM incubated for 2 hrs by LC-MS/MS analysis. In kind it is ADME, cell-based.
Series [16] in a line: Efflux ratio of apparent permeability across basolateral to apical side over apical to basolateral side in human Caco-2 cells. In kind it is ADME, cell-based. On the technique in general: Caco-2 monolayers are a common model of the intestinal barrier.
Series [17] in a line: Toxicity in nu/nu mouse xenografted with human MCF7 cells assessed as change in body weight at 20 mg/kg, ip administered once every other day for 21 days. It counts as organism-based. The following applies: in vivo, 504 h, time 21 day.
Series [18] in a line: Toxicity in nu/nu mouse xenografted with human MCF7 cells assessed as effect on heart at 20 mg/kg, ip administered once every other day for 21 days by HE staining based analysis. In kind it is organism-based. Particulars: in vivo, 504 h, time 21 day.
Series [19] deals with MCF7. The series can be described thus: Antitumor activity against human MCF7 cells xenografted in nu/nu mouse assessed as reduction in Ki-67 at 20 mg/kg,ip administered once every other day for 21 days by immunohistochemical analysis. Particulars: time 21.0 day. In kind it is functional, organism-based.

On to `Cc1cc(Nc2nc(NCc3ccc(F)cc3F)nc3c2cnn3C2CCN(C(=O)C3CCN(c4ccc5c(c4)C(=O)N(C4CCC(=O)NC4=O)C5=O)CC3)CC2)n[nH]1` (stereo unspecified), for which the Activity in series [1] is 68.3%; in [17], “Non-Toxic”; in series [18], “Non-Toxic”. Besides, the result (in [2]; in the series on MCF7 [5]) was Active. Moreover, the results for the inhibition result (in series [3]; in the series on MCF7 [4]; in the series on MCF7 [6]) were “Dose-Dependent Effect”, “Dose-Dependent Effect” and “Tde”, respectively. For the same compound, the half-life at 100 µM in series [7] was 1.06 h; in series [8] it was 1.35 h. In [9], the microsomal CLint at 100 µM turned out to be 21.7 µL/min/mg. For the same compound, the remaining at 1 h, 100 µM in series [10] came out at 56.4%; in series [11], 51.5%; in [12] it was 93.1%. Also, the values for the inhibition at 0.25 h, 10 µM against CYP2C19 and with CYP2D6 were 23.4% and 5.6%, respectively. In addition, the Time in series [13] came to 2.29 h; in [14], 3.93 h. The Papp A→B at 2 h, 2 µM in series [15] amounted to 0.48 ×10⁻⁶ cm/s. Further, the efflux ratio in series [16] amounted to 2.02. For the same compound, the inhibition result in the series with MCF7 [19] is “Active”.
